Laboratory results as given in US10914725B2, “Culture medium additive, culture medium composition, and method for culturing cells or tissue using same” (NISSAN CHEMICAL INDUSTRIES, LTD., priority 2015, dated 2021).

Tests used:
[1] = test system: adenocarcinomic human alveolar basal epithelial cell line A549; assay: CellTiter-Glo cell survival assay of anticancer agents (Experimental Example 8); assay type: cell-based; settings: for IC50: Homo sapiens, A549, cell survival assay by luminescence, read-out: 50% inhibitory concentration
Experimental: Adenocarcinomic human alveolar basal epithelial cell line A549 (manufactured by DS PHARMA BIOMEDICAL CO., LTD.) was suspended in the above-mentioned medium composition containing low-molecular agar at 11,000 cells/mL. The above-mentioned cell suspension was dispensed to the wells of a 96 well flat bottom ultra-low attachment surface microplate (manufactured by Corning Incorporated, #3474) at 90 μL per 1 well. The plate was stood in a CO2 incubator (37° C., 5% CO2) overnight. […] Successively, the plate was further cultured in a standing state in a CO2 incubator (37° C., 5% CO2) for 7 days. As a negative control, a medium composition containing 10 (v/v) % FBS alone in DMEM (manufactured by Wako Pure Chemical Industries, Ltd.) was prepared. […] A549 cells were also suspended in each of the negative control and comparison control medium compositions, the negative control was dispensed to a 96 well flat bottom attachment surface microplate (manufactured by Corning Incorporated, #3585) and the comparison control was dispensed to a 96 well flat bottom ultra-low attachment surface microplate (manufactured by Corning Incorporated, #3474). […] CellTiter-Glo Luminescent Cell Viability Assay (manufactured by Promega) (100 μL) was added to the low-molecular agar-containing culture medium and each cell culture medium of the negative control and comparison control, the mixture was stood for 10 min at room temperature, and the amount of luminescence was measured by a microplate reader (“FlexStation 3”, manufactured by Molecular Devices) and according to the protocol recommended by Promega. The amount of luminescence of the medium alone was subtracted, whereby the number of viable cells was measured.

[2] = test system: adenocarcinomic human alveolar basal epithelial cell line A549; assay: High content analysis of anticancer agents by cell image analysis (Experimental Example 8); assay type: cell-based; settings: for IC50: Homo sapiens; for average cell number per sphere / average dead cell number in sphere / average sphere number per 20 mm^2 / projected area: 0.03 (w/v)% low-molecular agar medium, 7 days with agent;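 as to projected area: Projected area in square micrometres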
Experimental: Adenocarcinomic human alveolar basal epithelial cell line A549 (manufactured by DS PHARMA BIOMEDICAL CO., LTD.) was suspended in the above-mentioned medium composition containing low-molecular agar at 11,000 cells/mL. […] The plate was stood in a CO2 incubator (37° C., 5% CO2) overnight. The next day, paclitaxel (manufactured by Wako Pure Chemical Industries, Ltd.) and trametinib (manufactured by SANTA CRUZ) were further added by 10 μl per 1 well at a final concentration of 0.001 μM, 0.01 μM and 0.1 μM, respectively, mitomycin C (manufactured by Wako Pure Chemical Industries, Ltd.) at a final concentration of 0.005 μM, 0.05 μM and 0.5 μM, and MK2206 (manufactured by SANTA CRUZ) at a final concentration of 0.001 μM, 0.01 μM, 0.1 μM and 1 μM. Successively, the plate was further cultured in a standing state in a CO2 incubator (37° C., 5% CO2) for 7 days.
Successively, a solution of 20 μg/mL Propidium Iodide (manufactured by BIOMOL) in DMEM (phenol red, L-glutamine free) (manufactured by Wako Pure Chemical Industries, Ltd.) was prepared and added at 10 μL per 1 well, and the culture medium was suspended. The plate was centrifuged at 1,500 rpm for 1 min, and high content analysis was performed by cell image analysis using a cell imaging apparatus (“ArrayScan VTI HCS Reader”, manufactured by Thermo Fisher Scientific). At that time, observation was performed with 20 fields of view per well using a ×10 objective lens, cell outline and cell nucleus were detected from Hoechst33342 fluorescence image, and dead cells were detected from propidium iodide fluorescence image. In addition, 50% inhibitory concentration (nM) of each anticancer agent by high content analysis was calculated from the number of spheres constituted of not less than 5 cells. In this case, the value without addition of the anticancer agent was taken as 0% sphere formation inhibitory rate.

[3] = comparison control (0.015 (w/v)% deacylated gellan gum medium)
[4] = low-molecular agar-containing medium
[5] = negative control (DMEM, 10% FBS, attachment surface plate)
[6] = agent 0.001 μM, comparison control (0.015 (w/v)% deacylated gellan gum medium)
[7] = agent 0.001 μM, low-molecular agar-containing medium
[8] = agent 0.001 μM, negative control (DMEM, 10% FBS, attachment surface plate)
[9] = agent 0.01 μM, comparison control (0.015 (w/v)% deacylated gellan gum medium)
[10] = agent 0.01 μM, low-molecular agar-containing medium
[11] = agent 0.01 μM, negative control (DMEM, 10% FBS, attachment surface plate)
[12] = agent 0.1 μM, comparison control (0.015 (w/v)% deacylated gellan gum medium)
[13] = agent 0.1 μM, low-molecular agar-containing medium
[14] = agent 0.1 μM, negative control (DMEM, 10% FBS, attachment surface plate)
[15] = A549, high content analysis by cell image analysis, number of spheres of not less than 5 cells, low-molecular agar-containing medium, read-out: 50% inhibitory concentration

Compound `NC1(c2ccc(-c3nc4ccn5c(=O)[nH]nc5c4cc3-c3ccccc3)cc2)CCC1` [MK2206] has an IC50 [1, 3] of 210 nM, an IC50 [1, 4] of 250 nM and an IC50 [1, 5] of at least 1000 nM. The “relative cell number (no anticancer agent = 100)” value [1, 6] was 95.8, the “relative cell number (no anticancer agent = 100)” value [1, 7] was 100.1 and the “relative cell number (no anticancer agent = 100)” value [1, 8] was 100.2. For the same compound, the “relative cell number (no anticancer agent = 100)” value [1, 9] was 89.1, the “relative cell number (no anticancer agent = 100)” value [1, 10] was 93.9 and the “relative cell number (no anticancer agent = 100)” value [1, 11] was 101.3. The “relative cell number (no anticancer agent = 100)” value [1, 12] was 61.8, the “relative cell number (no anticancer agent = 100)” value [1, 13] was 66.5 and the “relative cell number (no anticancer agent = 100)” value [1, 14] was 97.6. For the same compound, the “relative cell number (no anticancer agent = 100)” value ([1]; agent 1 μM, comparison control (0.015 (w/v)% deacylated gellan gum medium)) was 25.2, the “relative cell number (no anticancer agent = 100)” value ([1]; agent 1 μM, low-molecular agar-containing medium) was 25.7 and the “relative cell number (no anticancer agent = 100)” value ([1]; agent 1 μM, negative control (DMEM, 10% FBS, attachment surface plate)) was 95.7. The IC50 [2, 15] was 210 nM, the “average cell number per sphere” value ([2]; agent 0.001 μM) was 5.044 and the “average dead cell number in sphere” value ([2]; agent 0.001 μM) was 0.104. For the same compound, the “average sphere number per 20 mm^2” value ([2]; agent 0.001 μM) was 230.6, the projected area ([2]; agent 0.001 μM) was 1361 μm^2 and the “average cell number per sphere” value ([2]; agent 0.01 μM) was 4.774. For the same compound, the “average dead cell number in sphere” value ([2]; agent 0.01 μM) was 0.074, the “average sphere number per 20 mm^2” value ([2]; agent 0.01 μM) was 213.7 and the projected area ([2]; agent 0.01 μM) was 1343 μm^2. The “average cell number per sphere” value ([2]; agent 0.1 μM) was 4.323, the “average dead cell number in sphere” value ([2]; agent 0.1 μM) was 0.076 and the “average sphere number per 20 mm^2” value ([2]; agent 0.1 μM) was 206.1. For the same compound, the projected area ([2]; agent 0.1 μM) was 1199 μm^2, the “average cell number per sphere” value ([2]; agent 1 μM) was 3.423 and the “average dead cell number in sphere” value ([2]; agent 1 μM) was 0.332. For the same compound, the “average sphere number per 20 mm^2” value ([2]; agent 1 μM) was 142.3 and the projected area ([2]; agent 1 μM) was 931.2 μm^2.
`CO[C@@]12[C@H](COC(N)=O)C3=C(C(=O)C(C)=C(N)C3=O)N1C[C@@H]1N[C@@H]12` [mitomycin C] was tested, and the IC50 [1, 3] was 12.1 nM, the IC50 [1, 4] was 10 nM and the IC50 [1, 5] was 71.4 nM. For the same compound, the “relative cell number (no anticancer agent = 100)” value ([1]; agent 0.005 μM, comparison control (0.015 (w/v)% deacylated gellan gum medium)) was 62.8, the “relative cell number (no anticancer agent = 100)” value ([1]; agent 0.005 μM, low-molecular agar-containing medium) was 59.5 and the “relative cell number (no anticancer agent = 100)” value ([1]; agent 0.005 μM, negative control (DMEM, 10% FBS, attachment surface plate)) was 94. The “relative cell number (no anticancer agent = 100)” value ([1]; agent 0.05 μM, comparison control (0.015 (w/v)% deacylated gellan gum medium)) was 29.5, the “relative cell number (no anticancer agent = 100)” value ([1]; agent 0.05 μM, low-molecular agar-containing medium) was 27.8 and the “relative cell number (no anticancer agent = 100)” value ([1]; agent 0.05 μM, negative control (DMEM, 10% FBS, attachment surface plate)) was 55.9. For the same compound, the “relative cell number (no anticancer agent = 100)” value ([1]; agent 0.5 μM, comparison control (0.015 (w/v)% deacylated gellan gum medium)) was 8.6, the “relative cell number (no anticancer agent = 100)” value ([1]; agent 0.5 μM, low-molecular agar-containing medium) was 8.1 and the “relative cell number (no anticancer agent = 100)” value ([1]; agent 0.5 μM, negative control (DMEM, 10% FBS, attachment surface plate)) was 12.3. The IC50 ([2]; A549, read-out: 50% inhibitory concentration) was 6.4 nM, the “average cell number per sphere” value ([2]; agent 0.005 μM) was 3.72 and the “average dead cell number in sphere” value ([2]; agent 0.005 μM) was 0.151. For the same compound, the “average sphere number per 20 mm^2” value ([2]; agent 0.005 μM) was 265.2, the projected area ([2]; agent 0.005 μM) was 1139 μm^2 and the “average cell number per sphere” value ([2]; agent 0.05 μM) was 2.187. The “average dead cell number in sphere” value ([2]; agent 0.05 μM) was 0.33, the “average sphere number per 20 mm^2” value ([2]; agent 0.05 μM) was 190.6 and the projected area ([2]; agent 0.05 μM) was 810.7 μm^2. The “average cell number per sphere” value ([2]; agent 0.5 μM) was 1.447, the “average dead cell number in sphere” value ([2]; agent 0.5 μM) was 0.606 and the “average sphere number per 20 mm^2” value ([2]; agent 0.5 μM) was 113.3. It also gave a projected area ([2]; agent 0.5 μM) of 460.8 μm^2.
`CC(=O)Nc1cccc(-n2c(=O)n(C3CC3)c(=O)c3c(Nc4ccc(I)cc4F)n(C)c(=O)c(C)c32)c1` [trametinib] gave an IC50 [1, 3] of 11.5 nM, an IC50 [1, 4] of 8.1 nM and an IC50 [1, 5] of 62.5 nM. For the same compound, the “relative cell number (no anticancer agent = 100)” value [1, 6] was 93.3, the “relative cell number (no anticancer agent = 100)” value [1, 7] was 92.2 and the “relative cell number (no anticancer agent = 100)” value [1, 8] was 101.2. For the same compound, the “relative cell number (no anticancer agent = 100)” value [1, 9] was 52.5, the “relative cell number (no anticancer agent = 100)” value [1, 10] was 45.8 and the “relative cell number (no anticancer agent = 100)” value [1, 11] was 99. For the same compound, the “relative cell number (no anticancer agent = 100)” value [1, 12] was 18.1, the “relative cell number (no anticancer agent = 100)” value [1, 13] was 18.2 and the “relative cell number (no anticancer agent = 100)” value [1, 14] was 37.4. For the same compound, the IC50 [2, 15] was 5.1 nM, the “average cell number per sphere” value ([2]; agent 0.001 μM) was 4.272 and the “average dead cell number in sphere” value ([2]; agent 0.001 μM) was 0.073. The “average sphere number per 20 mm^2” value ([2]; agent 0.001 μM) was 218.7, the projected area ([2]; agent 0.001 μM) was 1200 μm^2 and the “average cell number per sphere” value ([2]; agent 0.01 μM) was 2.906. For the same compound, the “average dead cell number in sphere” value ([2]; agent 0.01 μM) was 0.09, the “average sphere number per 20 mm^2” value ([2]; agent 0.01 μM) was 173.9 and the projected area ([2]; agent 0.01 μM) was 976.6 μm^2. The “average cell number per sphere” value ([2]; agent 0.1 μM) was 1.867, the “average dead cell number in sphere” value ([2]; agent 0.1 μM) was 0.178 and the “average sphere number per 20 mm^2” value ([2]; agent 0.1 μM) was 132.8. The projected area ([2]; agent 0.1 μM) was 618.3 μm^2.
